Test results as given in patent US8461328B2, “Tricyclic heterocyclic compounds, compositions and methods of use thereof” (Genentech, Inc., priority 2010, dated 2013).
Structures can show the parent of a compound that is named as a salt.

Assays:
Type in all cases: biochemical
JAK2 = target: T1, JAK2 (Homo sapiens, UniProt O60674); assay: JAK2 inhibition (Table 4); details: read-out: JAK2 Ki
T1 construct: made in house; host or cells: SF9 insect cells (baculovirus)

TYK2 = target: T2, TYK2 (Homo sapiens, UniProt P29597); assay: TYK2 inhibition (Table 4)
T2 construct: made in house; host or cells: SF9 insect cells (baculovirus)
T2 sequence (P29597 873-1187): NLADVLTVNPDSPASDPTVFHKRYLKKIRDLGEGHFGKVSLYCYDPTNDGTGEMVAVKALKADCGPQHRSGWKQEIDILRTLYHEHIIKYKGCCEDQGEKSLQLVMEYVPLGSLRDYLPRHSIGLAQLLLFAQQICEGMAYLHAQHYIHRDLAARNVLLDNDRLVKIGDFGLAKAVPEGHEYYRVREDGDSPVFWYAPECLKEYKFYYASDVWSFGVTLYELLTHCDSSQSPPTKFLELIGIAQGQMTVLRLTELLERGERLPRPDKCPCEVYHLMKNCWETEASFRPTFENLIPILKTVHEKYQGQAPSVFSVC

JAK3 = target: T3, JAK3 (Homo sapiens, UniProt P52333); assay: JAK3 inhibition (Table 4); details: read-out: JAK3 Ki
T3 construct: made in house; host or cells: SF9 insect cells (baculovirus)
T3 sequence (P52333 783-1124): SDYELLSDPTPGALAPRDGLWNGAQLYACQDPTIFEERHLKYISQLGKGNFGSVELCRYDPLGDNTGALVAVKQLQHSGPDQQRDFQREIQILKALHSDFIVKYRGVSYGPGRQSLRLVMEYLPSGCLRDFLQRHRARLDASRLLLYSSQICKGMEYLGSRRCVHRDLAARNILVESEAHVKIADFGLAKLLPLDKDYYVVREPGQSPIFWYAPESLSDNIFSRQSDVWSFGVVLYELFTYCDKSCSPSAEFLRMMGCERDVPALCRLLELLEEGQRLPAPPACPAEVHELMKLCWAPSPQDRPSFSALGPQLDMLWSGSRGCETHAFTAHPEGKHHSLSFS

JAK1 = target: T4, JAK1 (Homo sapiens, UniProt P23458); assay: JAK1 inhibition (Table 4); details: read-out: JAK1 Ki
T4 construct: made in house; host or cells: SF9 insect cells (baculovirus)
T4 sequence (P23458 852-1154): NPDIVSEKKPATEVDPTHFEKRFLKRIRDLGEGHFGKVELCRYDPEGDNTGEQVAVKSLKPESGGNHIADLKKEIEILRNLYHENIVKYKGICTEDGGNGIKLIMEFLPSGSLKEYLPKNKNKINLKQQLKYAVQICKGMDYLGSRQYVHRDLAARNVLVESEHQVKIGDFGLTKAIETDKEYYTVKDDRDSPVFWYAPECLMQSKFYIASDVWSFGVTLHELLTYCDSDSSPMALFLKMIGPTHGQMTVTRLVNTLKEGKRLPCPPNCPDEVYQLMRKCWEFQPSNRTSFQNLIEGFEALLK

T1 sequence (O60674 812-1132): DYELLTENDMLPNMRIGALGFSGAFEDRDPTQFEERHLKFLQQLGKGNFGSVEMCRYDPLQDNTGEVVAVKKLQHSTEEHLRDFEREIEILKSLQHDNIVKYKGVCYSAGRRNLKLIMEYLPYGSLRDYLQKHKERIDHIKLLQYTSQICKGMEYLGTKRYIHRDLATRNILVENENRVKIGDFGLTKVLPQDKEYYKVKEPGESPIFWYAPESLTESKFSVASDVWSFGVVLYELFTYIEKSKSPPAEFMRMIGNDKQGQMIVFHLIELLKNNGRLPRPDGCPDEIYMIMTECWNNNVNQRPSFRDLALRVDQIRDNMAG

Row | SMILES | Ki (JAK2) [nM] | Ki (TYK2) [nM] | Ki (JAK3) [nM] | Ki (JAK1) [nM]
1 | O=C(N[C@H]1CC[C@H](n2cnc3cnc4[nH]ccc4c32)CC1)N1CCOCC1 [Example 593, Trans Morpholine-4-carboxylic acid [4-(6H-1,2,3,5,6-tetraaza-as-indacen-1-yl)-cyclohexyl]-amide] | 36.5 | 398 | 316 | 27.1
2 | COCCNC(=O)O[C@H]1CC[C@H](n2cnc3cnc4[nH]ccc4c32)CC1 [Example 595, Trans (2-methoxy-ethyl)-carbamic acid 4-(6H-1,2,3,5,6-tetraaza-as-indacen-1-yl)-cyclohexyl ester] | 28.9 | 185 | 96.8 | 10.4
3 | Cc1nc2cnc3[nH]ccc3c2n1[C@H]1CC[C@H](N2CCNC2=O)CC1 [Example 598, Trans 1-[4-(2-methyl-6H-1,2,3,5,6-tetraaza-as-indacen-1-yl)-cyclohexyl]-imidazolidin-2-one formic acid salt] | 8.34 | 45.5 | 12.1 | 7.31
4 | CC(=O)NCCOC(=O)N[C@H]1CC[C@H](n2cnc3cnc4[nH]ccc4c32)CC1 [Example 599, Trans[4-(6H-1,2,3,5,6-tetraaza-as-indacen-1-yl)-cyclohexyl]-carbamic acid 2-acetylamino-ethyl ester] | 26.4 | 120 | 186 | 7.68
5 | COC(=O)N[C@H]1CC[C@H](n2c(CO)nc3cnc4[nH]ccc4c32)CC1 [Example 600, Trans[4-(2-hydroxymethyl-6H-1,2,3,5,6-tetraaza-as-indacen-1-yl)-cyclohexyl]-carbamic acid methyl ester] | 23.2 | 20.8 | 172 | 2.73
6 | O=C(N[C@H]1CC[C@H](n2c(CO)nc3cnc4[nH]ccc4c32)CC1)OCC1CC1 [Example 601, Trans[4-(2-hydroxymethyl-6H-1,2,3,5,6-tetraaza-as-indacen-1-yl)-cyclohexyl]-carbamic acid cyclopropylmethyl ester] | 57.1 | 149 | 111 | 3.89
7 | O=C1OC(CO)CN1[C@H]1CC[C@H](n2cnc3cnc4[nH]ccc4c32)CC1 (stereo partly drawn) [Example 602, Trans 5-hydroxymethyl-3-[4-(6H-1,2,3,5,6-tetraaza-as-indacen-1-yl)-cyclohexyl]-oxazolidin-2-one] | 2.41 | 12.7 | 56.7 | 1.67
8 | CN(C)C(=O)N[C@H]1CC[C@H](n2cnc3cnc4[nH]ccc4c32)CC1 [Example 603, Trans 1,1-dimethyl-3-[4-(6H-1,2,3,5,6-tetraaza-as-indacen-1-yl)-cyclohexyl]-urea] | 20.8 | 87 | 237 | 9.76
9 | Cc1nc2cnc3[nH]ccc3c2n1[C@H]1CC[C@H](NC(=O)N(C)C)CC1 [Example 604, Trans 1,1-dimethyl-3-[4-(2-methyl-6H-1,2,3,5,6-tetraaza-as-indacen-1-yl)-cyclohexyl]-urea] | 46 | 244 | 249 | 16.4
10 | Cc1nc2cnc3[nH]ccc3c2n1[C@H]1CC[C@H](OC(=O)N(C)C)CC1 [Example 605, Trans dimethyl-carbamic acid 4-(2-methyl-6H-1,2,3,5,6-tetraaza-as-indacen-1-yl)-cyclohexyl ester] | 43.1 | 129 | 152 | 15.2
11 | COC(=O)N(C)[C@H]1CC[C@H](n2c(CO)nc3cnc4[nH]ccc4c32)CC1 [Example 606, Trans[4-(2-hydroxymethyl-6H-1,2,3,5,6-tetraaza-as-indacen-1-yl)-cyclohexyl]-methyl-carbamic acid methyl ester] | 65.2 | 112 | 455 | 28.8
12 | Cc1nc2cnc3[nH]ccc3c2n1[C@H]1CC[C@H](NC(=O)OCC(F)F)CC1 [Example 607, Trans[4-(2-methyl-6H-1,2,3,5,6-tetraaza-as-indacen-1-yl)-cyclohexyl]-carbamic acid 2,2-difluoro-ethyl ester] | 4.46 | 23.1 | 11.2 | 0.6

Next, values leading:

Row | Ki (JAK2) [nM] | Ki (TYK2) [nM] | Ki (JAK3) [nM] | Ki (JAK1) [nM] | SMILES
13 | 12.4 | 182 | 158 | 17.8 | CNC(=O)N(C)[C@H]1CC[C@H](n2c(C)nc3cnc4[nH]ccc4c32)CC1 [Example 608, Trans 1,3-dimethyl-1-[4-(2-methyl-6H-1,2,3,5,6-tetraaza-as-indacen-1-yl)-cyclohexyl]-urea]
14 | 641 | 910 | 701 | 96.7 | C[C@@H](O)c1nc2cnc3[nH]ccc3c2n1[C@H]1CC[C@H](OC(=O)N(C)C)CC1 [Example 609, Trans dimethyl-carbamic acid 4-[2-((R)-1-hydroxy-ethyl)-6H-1,2,3,5,6-tetraaza-as-indacen-1-yl]-cyclohexyl ester]
15 | 35.5 | 17.7 | 139 | 7.25 | C[C@@H](O)c1nc2cnc3[nH]ccc3c2n1[C@H]1CC[C@H](N2CC[C@@H](C#N)C2)CC1 [Example 610, Trans (R)-1-{4-[2-((R)-1-hydroxy-ethyl)-6H-1,2,3,5,6-tetraaza-as-indacen-1-yl]-cyclohexyl}-pyrrolidine-3-carbonitrile]
16 | 455 | 224 | 509 | 52.9 | C[C@@H](O)c1nc2cnc3[nH]ccc3c2n1[C@H]1CC[C@@H](N2CCC(F)(F)CC2)CC1 [Example 612, Cis (R)-1-{1-[4-(4,4-difluoro-piperidin-1-yl)-cyclohexyl]-1,6-dihydro-1,2,3,5,6-tetraaza-as-indacen-2-yl}-ethanol]
17 | 15.1 | 14.5 | 318 | 2.58 | N#CC1CCN([C@H]2CC[C@H](n3c(CO)nc4cnc5[nH]ccc5c43)CC2)CC1 [Example 613, Trans 1-[4-(2-hydroxymethyl-6H-1,2,3,5,6-tetraaza-as-indacen-1-yl)-cyclohexyl]-piperidine-4-carbonitrile]
18 | 13.2 | 3.01 | 63.3 | 0.76 | C[C@@H](O)c1nc2cnc3[nH]ccc3c2n1[C@H]1CC[C@H](NCC(F)(F)F)CC1 [Example 614, Trans (R)-1-{1-[4-(2,2,2-trifluoro-ethylamino)-cyclohexyl]-1,6-dihydro-1,2,3,5,6-tetraaza-as-indacen-2-yl}-ethanol]
19 | 57.5 | 21.5 | 137 | 1.96 | C[C@@H](O)c1nc2cnc3[nH]ccc3c2n1[C@H]1CC[C@H](NCCC#N)CC1 [Example 615, Trans 3-{4-[2-((R)-1-hydroxy-ethyl)-6H-1,2,3,5,6-tetraaza-as-indacen-1-yl]-cyclohexylamino}-propionitrile]
20 | 20 | 12.1 | 84.3 | 4.49 | C[C@@H](O)c1nc2cnc3[nH]ccc3c2n1[C@H]1CC[C@H](N(C)CCC#N)CC1 [Example 616, Trans 3-({4-[2-((R)-1-hydroxy-ethyl)-6H-1,2,3,5,6-tetraaza-as-indacen-1-yl]-cyclohexyl}-methyl-amino)-propionitrile]
